Source: ChEMBL document CHEMBL4699534, “Optimizing PEG-Extended Apelin Analogues as Cardioprotective Drug Leads: Importance of the KFRR Motif and Aromatic Head Group for Improved Physiological Activity” (J Med Chem, 2020)
Non-standard residues stand in square brackets, D forms with d. Residues, ends and D or L forms follow the SMILES beside them. Bpa = N[C@@H](Cc1ccc(C(=O)c2ccccc2)cc1)C(=O)O; Phe(4-Br) = N[C@@H](Cc1ccc(Br)cc1)C(=O)O; PEG7 = NCCOCCOCCOCCOCCOCCOCCOCCC(=O)O; NMeR = CN[C@@H](CCCNC(=N)N)C(=O)O; NMeL = CN[C@@H](CC(C)C)C(=O)O; Nle = CCCC[C@H](N)C(=O)O; Aib = CC(C)(N)C(=O)O

What was measured:
Apelin receptor [1] = molecular target: T1, Apelin receptor (Homo sapiens, UniProt P35414); assay: Activation of APJ receptor (unknown origin) expressed in Chem-5 cells assessed as stimulation of Ca2+ mobilization by Calcium 6-GF dye based fluorescence based assay; assay type: functional, cell-based
T1 sequence (P35414 whole entry): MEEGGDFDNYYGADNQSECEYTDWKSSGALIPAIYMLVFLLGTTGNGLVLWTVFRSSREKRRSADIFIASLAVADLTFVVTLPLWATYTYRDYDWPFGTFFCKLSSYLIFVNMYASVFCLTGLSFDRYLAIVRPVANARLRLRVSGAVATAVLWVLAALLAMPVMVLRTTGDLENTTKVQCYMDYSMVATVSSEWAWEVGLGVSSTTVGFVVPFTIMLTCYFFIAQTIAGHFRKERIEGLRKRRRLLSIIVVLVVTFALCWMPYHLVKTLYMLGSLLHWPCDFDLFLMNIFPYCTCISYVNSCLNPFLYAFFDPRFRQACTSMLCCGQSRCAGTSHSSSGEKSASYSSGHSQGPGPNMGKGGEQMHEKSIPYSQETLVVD

Mus musculus = assay: Cardioprotective activity in C57BL/6 mouse assessed as reduction in mean arterial blood pressure at 1.4 uM/kg, iv measured after 15 mins relative to control; assay type: functional; settings: 0.25 h
Apelin receptor [2] = molecular target: T2, Apelin receptor (Rattus norvegicus, UniProt Q9JHG3); assay: Displacement of [125I]-pyr-1-apelin-13 from EGFP-tagged wild-type rat apelin receptor expressed in CHO cell membranes by gamma counting method; parameters: species or system Cell membrane
T2 sequence (Q9JHG3 whole entry): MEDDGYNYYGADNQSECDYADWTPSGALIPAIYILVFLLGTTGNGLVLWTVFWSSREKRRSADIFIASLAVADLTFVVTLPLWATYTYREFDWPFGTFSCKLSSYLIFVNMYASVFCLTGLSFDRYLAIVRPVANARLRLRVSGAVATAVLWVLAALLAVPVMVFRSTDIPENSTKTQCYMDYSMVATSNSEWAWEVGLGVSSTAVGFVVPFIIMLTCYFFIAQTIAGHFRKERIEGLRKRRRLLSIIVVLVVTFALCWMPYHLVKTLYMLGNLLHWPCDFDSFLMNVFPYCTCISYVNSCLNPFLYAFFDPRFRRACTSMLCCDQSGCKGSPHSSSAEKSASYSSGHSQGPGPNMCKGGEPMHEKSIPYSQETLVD

[3] = Half life in human plasma at 400 uM by HPLC analysis; assay type: ADME, cell-free

SMILES: CSCC[C@H](NC(=O)[C@@H]1CCCN1C(=O)CNC(=O)[C@H](CCCCN)NC(=O)[C@H](Cc1c[nH]cn1)NC(=O)[C@H](CO)NC(=O)[C@H](CC(C)C)NC(=O)[C@H](CCCNC(=N)N)NC(=O)[C@@H]1CCCN1C(=O)[C@H](CCCNC(=N)N)NC(=O)[C@H](CCC(N)=O)NC(=O)[C@H](CCCNC(=N)N)NC(=O)[C@H](C)NC(=O)[C@H](Cc1ccccc1)NC(=O)[C@@H](N)CCCCN)C(=O)N1CCC[C@H]1C(=O)N[C@@H](Cc1ccccc1)C(=O)O
- EC50 (Apelin receptor [1]): 39.8 nM
- Activity (Mus musculus): 1 mmHg
- IC50 (Apelin receptor [2]): 1.41 nM

SMILES: CCCC[C@H](NC(=O)[C@@H]1CCCN1C(=O)CNC(=O)[C@H](CCCCN)NC(=O)[C@H](Cc1c[nH]cn1)NC(=O)[C@H](CO)NC(=O)[C@H](CC(C)C)NC(=O)[C@H](CCCNC(=N)N)NC(=O)[C@@H]1CCCN1C(=O)[C@H](CCCNC(=N)N)NC(=O)[C@H](CCC(N)=O)NC(=O)[C@H](CCCNC(=N)N)NC(=O)[C@H](CCCNC(=N)N)NC(=O)[C@H](Cc1ccccc1)NC(=O)[C@H](C)N)C(=O)NC(C)(C)C(=O)N[C@@H](Cc1ccc(Br)cc1)C(=O)O (H-AFRRQRPRLSHKGP[Nle][Aib][Phe(4-Br)]-OH)
- IC50 (Apelin receptor [2]): 0.2 nM

SMILES: CCCC[C@H](NC(=O)[C@@H]1CCCN1C(=O)CNC(=O)[C@H](CCCCN)NC(=O)[C@H](Cc1c[nH]cn1)NC(=O)[C@H](CO)NC(=O)[C@H](CC(C)C)N(C)C(=O)[C@H](CCCNC(=N)N)NC(=O)[C@@H]1CCCN1C(=O)[C@H](CCCNC(=N)N)NC(=O)[C@H](CCC(N)=O)NC(=O)[C@H](CCCNC(=N)N)N(C)C(=O)[C@H](CCCNC(=N)N)NC(=O)[C@H](Cc1ccccc1)NC(=O)[C@@H](N)CCCCN)C(=O)NC(C)(C)C(=O)N[C@@H](Cc1ccc(Br)cc1)C(=O)O (H-KFR[NMeR]QRPR[NMeL]SHKGP[Nle][Aib][Phe(4-Br)]-OH)
- half-life at 400 µM [3]: 5.2 h
- EC50 (Apelin receptor [1]): 3.47 nM
- Activity (Mus musculus): 14 mmHg
- IC50 (Apelin receptor [2]): 1.51 nM

SMILES: CSCC[C@H](NC(=O)[C@@H]1CCCN1C(=O)CNC(=O)[C@H](CCCCN)NC(=O)[C@H](Cc1c[nH]cn1)NC(=O)[C@H](CO)NC(=O)[C@H](CC(C)C)NC(=O)[C@H](CCCNC(=N)N)NC(=O)[C@@H]1CCCN1C(=O)[C@H](CCCNC(=N)N)NC(=O)[C@H](CCC(N)=O)NC(=O)[C@H](CCCNC(=N)N)NC(=O)[C@H](CCCNC(=N)N)NC(=O)[C@H](Cc1ccccc1)NC(=O)[C@H](C)N)C(=O)N1CCC[C@H]1C(=O)N[C@@H](Cc1ccccc1)C(=O)O
- EC50 (Apelin receptor [1]): 5.37 nM
- Activity (Mus musculus): -14 mmHg
- IC50 (Apelin receptor [2]): 1 nM

SMILES: CCCC[C@H](NC(=O)[C@@H]1CCCN1C(=O)CNC(=O)[C@H](CCCCN)NC(=O)[C@H](Cc1c[nH]cn1)NC(=O)[C@H](CO)NC(=O)[C@H](CC(C)C)NC(=O)[C@H](CCCNC(=N)N)NC(=O)[C@@H]1CCCN1C(=O)[C@H](CCCNC(=N)N)NC(=O)[C@H](CCC(N)=O)NC(=O)[C@H](C)NC(=O)[C@H](CCCNC(=N)N)NC(=O)[C@H](Cc1ccccc1)NC(=O)[C@@H](N)CCCCN)C(=O)NC(C)(C)C(=O)N[C@@H](Cc1ccc(Br)cc1)C(=O)O (H-KFRAQRPRLSHKGP[Nle][Aib][Phe(4-Br)]-OH)
- IC50 (Apelin receptor [2]): 0.302 nM

SMILES: CCCC[C@H](NC(=O)[C@@H]1CCCN1C(=O)CNC(=O)[C@H](CCCCN)NC(=O)[C@H](Cc1c[nH]cn1)NC(=O)[C@H](CO)NC(=O)[C@H](CC(C)C)N(C)C(=O)[C@H](CCCNC(=N)N)NC(=O)[C@@H]1CCCN1C(=O)[C@H](CCCNC(=N)N)NC(=O)[C@H](CCC(N)=O)NC(=O)[C@H](CCCNC(=N)N)NC(=O)[C@H](CCCNC(=N)N)NC(=O)[C@H](Cc1ccccc1)NC(=O)[C@H](CCCCN)NC(=O)CCOCCOCCOCCOCCOCCOCCOCCNC(=O)[C@@H](N)Cc1ccc(C(=O)c2ccccc2)cc1)C(=O)NC(C)(C)C(=O)N[C@@H](Cc1ccc(Br)cc1)C(=O)O (H-[Bpa][PEG7]KFRRQRPR[NMeL]SHKGP[Nle][Aib][Phe(4-Br)]-OH)
- half-life at 400 µM [3]: 8.2 h
- EC50 (Apelin receptor [1]): 89.1 nM
- Activity (Mus musculus): 43 mmHg
- IC50 (Apelin receptor [2]): 1.29 nM

SMILES: CCCC[C@H](NC(=O)[C@@H]1CCCN1C(=O)CNC(=O)[C@H](CCCCN)NC(=O)[C@H](Cc1c[nH]cn1)NC(=O)[C@H](CO)NC(=O)[C@H](CC(C)C)NC(=O)[C@H](CCCNC(=N)N)NC(=O)[C@@H]1CCCN1C(=O)[C@H](CCCNC(=N)N)NC(=O)[C@H](CCC(N)=O)NC(=O)[C@H](CCCNC(=N)N)NC(=O)[C@H](CCCNC(=N)N)NC(=O)[C@H](C)NC(=O)[C@@H](N)CCCCN)C(=O)NC(C)(C)C(=O)N[C@@H](Cc1ccc(Br)cc1)C(=O)O (H-KARRQRPRLSHKGP[Nle][Aib][Phe(4-Br)]-OH)
- IC50 (Apelin receptor [2]): 0.295 nM

SMILES: CCCC[C@H](NC(=O)[C@@H]1CCCN1C(=O)CNC(=O)[C@H](CCCCN)NC(=O)[C@H](Cc1c[nH]cn1)NC(=O)[C@H](CO)NC(=O)[C@H](CC(C)C)N(C)C(=O)[C@H](CCCNC(=N)N)NC(=O)[C@@H]1CCCN1C(=O)[C@H](CCCNC(=N)N)NC(=O)[C@H](CCC(N)=O)NC(=O)[C@H](CCCNC(=N)N)NC(=O)[C@H](CCCNC(=N)N)NC(=O)[C@H](Cc1ccccc1)NC(=O)[C@H](CCCCN)NC(=O)CCOCCOCCOCCOCCOCCOCCOCCNC(=O)[C@@H](N)Cc1ccccc1)C(=O)NC(C)(C)C(=O)N[C@@H](Cc1ccc(Br)cc1)C(=O)O (H-F[PEG7]KFRRQRPR[NMeL]SHKGP[Nle][Aib][Phe(4-Br)]-OH)
- half-life at 400 µM [3]: 6.4 h
- EC50 (Apelin receptor [1]): 25.7 nM
- Activity (Mus musculus): 24 mmHg
- IC50 (Apelin receptor [2]): 1.7 nM

SMILES: CSCC[C@H](NC(=O)[C@@H]1CCCN1C(=O)CNC(=O)[C@H](CCCCN)NC(=O)[C@H](Cc1c[nH]cn1)NC(=O)[C@H](CO)NC(=O)[C@H](CC(C)C)NC(=O)[C@H](CCCNC(=N)N)NC(=O)[C@@H]1CCCN1C(=O)[C@H](CCCNC(=N)N)NC(=O)[C@H](CCC(N)=O)NC(=O)[C@H](CCCNC(=N)N)NC(=O)[C@H](CCCNC(=N)N)NC(=O)[C@H](C)NC(=O)[C@@H](N)CCCCN)C(=O)N1CCC[C@H]1C(=O)N[C@@H](Cc1ccccc1)C(=O)O
- EC50 (Apelin receptor [1]): 6.17 nM
- Activity (Mus musculus): -3 mmHg
- IC50 (Apelin receptor [2]): 1 nM

SMILES: CCCC[C@H](NC(=O)[C@@H]1CCCN1C(=O)CNC(=O)[C@H](CCCCN)NC(=O)[C@H](Cc1c[nH]cn1)NC(=O)[C@H](CO)NC(=O)[C@H](CC(C)C)NC(=O)[C@H](CCCNC(=N)N)NC(=O)[C@@H]1CCCN1C(=O)[C@H](CCCNC(=N)N)NC(=O)[C@H](CCC(N)=O)NC(=O)[C@H](CCCNC(=N)N)NC(=O)[C@H](C)NC(=O)[C@H](Cc1ccccc1)NC(=O)[C@@H](N)CCCCN)C(=O)NC(C)(C)C(=O)N[C@@H](Cc1ccc(Br)cc1)C(=O)O (H-KFARQRPRLSHKGP[Nle][Aib][Phe(4-Br)]-OH)
- IC50 (Apelin receptor [2]): 0.219 nM

SMILES: CSCC[C@H](NC(=O)[C@@H]1CCCN1C(=O)CNC(=O)[C@H](CCCCN)NC(=O)[C@H](Cc1c[nH]cn1)NC(=O)[C@H](CO)NC(=O)[C@H](CC(C)C)NC(=O)[C@H](CCCNC(=N)N)NC(=O)[C@@H]1CCCN1C(=O)[C@H](CCCNC(=N)N)NC(=O)[C@H](CCC(N)=O)NC(=O)[C@H](C)NC(=O)[C@H](CCCNC(=N)N)NC(=O)[C@H](Cc1ccccc1)NC(=O)[C@@H](N)CCCCN)C(=O)N1CCC[C@H]1C(=O)N[C@@H](Cc1ccccc1)C(=O)O
- EC50 (Apelin receptor [1]): 74.1 nM
- Activity (Mus musculus): -9 mmHg
- IC50 (Apelin receptor [2]): 2.19 nM
